Results from US20230131339A1, “EPI-X4 BASED PEPTIDES AND DERIVATIVES THEREOF” (Universitaet Ulm, priority 2020, published 2023).
Where a SMILES comes first, the peptide text is derived from it. Primed or numbered codes have the meaning given here. Where no end group is shown, it is not given here. Side-chain parts run from the residue outwards. [ ]: non-standard residue; d: D form. The star is where a group is joined. DOTA = O=C(O)CN1CCN(CC(=O)O)CCN(CC(=O)*)CCN(CC(=O)O)CC1; Glu″ = glutamate linker (Glu-Pal); Palmitoyl = CCCCCCCCCCCCCCCC(=O)*

Experiments:
[1] = test system: CXCR4-tropic X4-HIV-1 (NL4-3); format: cell-based; details: for IC50: CXCR4-tropic X4- (NL4-3)
Description: The activity of the peptides was estimated by different assays.
The X4-HIV inhibition assay is designed to measure the activity of the inventive peptides by their efficiency of blocking the infection of tissue culture cells by CXCR4-tropic HIV-1 variants.
HIV-1 inhibition assay. […] For infection of TZM-bl cells in presence of inhibitors, cells were seeded at a density of 1×10^5 cells/ml in 70 μl DMEM containing 2.5% FCS. Compounds were diluted in PBS and 10 μl were added. After 15 minutes of incubation cells were inoculated with 20 μl of diluted virus. Infection rates were determined three days later using Gal-Screen system (Applied Biosystems).

[2] = Functional stability assay in human plasma
Description: Fourth, the stability of peptides in human plasma and whole human blood was tested (FIG. 4). The functional stability of EPI-X4 (SEQ ID NO.: 1) derivatives was screened using a CXCR4 antibody-based screening approach. Peptides were diluted in full human plasma or blood (>99%) and the functional activity was then measured after either 2 hours or 8 hours and compared to a sample that was not incubated in plasma or blood.
In this test, the peptides were incubated in human plasma for a certain time period.
Stability assay. Whole blood was collected from healthy donors in EDTA tubes and directly used or subsequently centrifuged for 15 min at 2,500×g to obtain plasma. Plasma from 6 donors was pooled and stored in aliquots at −80° C. Compounds were 200-fold diluted in human plasma or whole human blood to reach final concentrations of 20 μM. The t=0 sample was immediately taken and stored at −80° C. Plasma/compound or blood/compound mixture was then transferred to 37° C. and shook at 350 rpm. At given time points samples were taken and stored at −80° C.°. For measuring the functional activity of the plasma/peptide samples, the mixtures were thawed and diluted in ice cold PBS. 12G5-APC antibody competition was then performed as described before. For blood/peptide functional stability, samples were thawed and centrifuged at 14,000 rpm to remove cells and debris. The supernatant was then diluted in PBS and 12G5-antibody competition assay was performed. After the 2 hours incubation, the cells were washed and 50 μl of 1-step-Fix/Lyse solution (Thermo Fisher #00-5333-54) was added for 15 minutes at room temperature. Afterwards cells were washed again and analyzed for bound antibody.

CXCR4 = target: T1, CXCR4 (Homo sapiens, UniProt P61073); experiment: Antibody competition assay (12G5-assay) on SupT1 cells; format: binding
T1 construct: endogenous in cells; host or cells: SupT1 cells
T1 sequence (P61073 whole entry): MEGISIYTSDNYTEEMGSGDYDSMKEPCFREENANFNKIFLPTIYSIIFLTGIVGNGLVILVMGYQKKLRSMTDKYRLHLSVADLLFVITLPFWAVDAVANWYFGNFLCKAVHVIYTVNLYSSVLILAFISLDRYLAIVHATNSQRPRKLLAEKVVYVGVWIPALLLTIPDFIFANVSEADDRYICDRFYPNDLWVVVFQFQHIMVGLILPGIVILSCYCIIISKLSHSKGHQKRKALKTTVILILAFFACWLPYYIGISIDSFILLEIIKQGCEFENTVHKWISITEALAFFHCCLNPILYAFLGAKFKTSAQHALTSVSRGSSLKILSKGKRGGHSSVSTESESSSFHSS
Description: Second, the activity was tested by an antibody competition assay (FIG. 2). Values determined by the competition assay represent the potency of a compound to compete with an antibody that specifically binds to the binding pocket (ECL2) of CXCR4. […] To the right of the diagrams, an assignment of the curves to the tested peptides is explained. […] Three independent experiments were carried out for each peptide in each assay. The error bars refer to the standard deviation.
Antibody competition assay. Competition of compounds with antibody binding was performed on SupT1 cells. For that cells were washed in PBS containing 1% FCS and 50,000 cells were then seeded per well in a 96 V-well plate. Buffer was removed and plates were precooled at 4° C. Compounds were diluted in PBS and antibody (clone 12G5, APC labelled) was diluted in PBS containing 1% FCS. The antibody was used at a concentration closed to its determined Kd. 15 μl compounds were then added to the cells and 15 μl antibody immediately afterwards. Plates were incubated at 4° C. in the dark for 2 hours. Afterwards cells were washed twice with PBS containing 1% FCS and fixed with 2% PFA. Antibody binding was analyzed by flow cytometry (FACS CytoFLEX; Beckman Coulter®).

[3] = test system: CXCL12-induced AKT signaling; experiment: ERK/AKT signaling assay in SupT1 cells: AKT phosphorylation; format: cell-based; details: 10 μM
Description: Third, the activity of the claimed EPI-X4 derivatives was tested by the effect on CXCL12/CXCR4-mediated ERK (Extracellular-signal Regulated Kinases) and AKT (a serine/threonine-protein kinase) signaling (FIG. 3). In that assay CXCR4 expressing cells are stimulated with the CXCR4 chemokine-ligand CXCL12, which subsequently leads to phosphorylation of ERK and AKT. Preincubation of cells with CXCR4-antagonists blocks those pathways. […] Two or three independent experiments were carried out in triplicates for each peptide in each assay. The error bars refer to the standard deviation.
ERK/AKT signaling assay. CXCL12 induced ERK and AKT phosphorylation was determined in SupT1 cells. For this, 100,000 cells were seeded per well in a 96-V well plate in 100 μl medium supplemented with 1% FCS. Cells were incubated for 2 hours at 37° C. before 5 μl of compounds were added. After 15 min incubation at 37° C. cells were stimulated by adding 5 μl CXCL12 diluted in PBS to reach a final concentration of 100 ng/ml. Cells were further incubated for 2 min before the reaction was stopped by adding 20 μl of 10% PFA. Cells were fixed for 15 min at 4° C. before PFA was removed and cells permeabilized by adding 100 μl ice cold methanol. After 15 min at 4° C. the methanol was removed, cells were washed and 30 μl primary antibody was added (phospho-p44/42 MAPK (Erk1) (Tyr204)/(Erk2) (Tyr187) (D1H6G) mouse mAb #5726; phosphor-Akt (Ser473) (193H12) rabbit mAb #4058 Cell Signaling) for 1 hour at 4° C. After the antibody was removed and cells were washed secondary antibody was added for 30 min. Cells were washed afterwards and subsequently analyzed by flow cytometry.

Row | Molecule | anti-HIV-1 activity (in words) [1] | antibody competition / binding to CXCR4 (in words) (CXCR4) | also measured
1 | SC029: PEG 20 kDa telechelic peptide conjugate, JM #21 copies coupled to different ends of the polymer (ILRWSRKLPCVS; also: PEG 20 kDa conjugate, peptide copies at both polymer ends, site not given here) | comparable to the state of the art CXCR4-antagonist AMD3100 and JM #21 |  | remaining (relative) activity after 8 hours of plasma incubation ([2]; human, plasma, 8 h): 38%
2 | SC066: PEG-coupled JM #21, two peptide copies on one end of PEG, average molecular mass 20 kDa (ILRWSRKLPCVS; also: PEG-coupled, two peptide copies on one end, average 20 kDa) | comparable to the state of the art CXCR4-antagonist AMD3100 and JM #21 | even higher activity than JM #21 | 
3 | CSCC[C@@H](N)C(=O)N[C@@H](CC(C)C)C(=O)N[C@@H](CCCNC(=N)N)C(=O)N[C@@H](Cc1c[nH]c2ccccc12)C(=O)N[C@@H](CO)C(=O)N[C@@H](CCCNC(=N)N)C(=O)N[C@@H](CCCCN)C(=O)N[C@@H](CCSC)C(=O)N1CCC[C@H]1C(=O)N[C@@H](CS)C(=O)N[C@H](C(=O)N[C@@H](CO)C(=O)O)C(C)C [JM #28] (H-[dM]LRWSRKMPCVS-OH; C-terminus assumed) |  |  | IC50 [1]: 246 nM; remaining (relative) activity after 2 hours of plasma incubation ([2]; human plasma): 96%; remaining (relative) activity after 8 hours of plasma incubation ([2]; human plasma, 8 hours): 77%
4 | JM #207: JM #122 with DOTA conjugated via an additional lysine coupled to the C-terminal amino acid of the peptide (ILRWSRKLPSVSK(DOTA)) | suppressed HIV-1 infection with similar potency as the non-conjugated peptide | displaced the antibody as efficiently as the non-conjugated JM #21 | 
5 | SC069: DSPE-coupled derivative (via PEG), two peptide copies on one end (ILRWSRKLPCVS; also: DSPE-coupled via PEG, two peptide copies on one end) | higher activity than cholesterol-coupled SC043 | higher activity than cholesterol-coupled SC043 | 
6 | CCCCCCCCCCCCCCCC(=O)NCCCC[C@H](NC(=O)[C@H](CCCCN)NC(=O)[C@H](CO)NC(=O)[C@H](Cc1c[nH]c2ccccc12)NC(=O)[C@H](CCCNC(=N)N)NC(=O)[C@@H](NC(=O)[C@@H](N)[C@@H](C)CC)C(C)C)C(=O)N[C@H](C(=O)N1CCC[C@H]1C(N)=O)C(C)C [JM #167, IVRWSKK(Pal)VP-NH2] (H-IVRWSKK(Palmitoyl)VP-NH2) |  |  | IC50 (CXCR4): 2 nM
7 | c1cc(CN2CCCNCCNCCCNCC2)ccc1CN1CCCNCCNCCCNCC1 [AMD3100, reference compound] |  |  | reduction of CXCL12-induced AKT signaling [3]: about 60%
8 | JM #206: JM #21 with DOTA conjugated via an additional lysine coupled to the C-terminal amino acid of the peptide (ILRWSRKLPCVSK(DOTA)) | suppressed HIV-1 infection with similar potency as the non-conjugated peptide | displaced the antibody as efficiently as the non-conjugated JM #21 | 
9 | CC[C@@H](C)[C@@H](N)C(=O)N[C@@H](CC(C)C)C(=O)N[C@@H](CCCNC(=N)N)C(=O)N[C@@H](Cc1c[nH]c2ccccc12)C(=O)N[C@@H](CO)C(=O)N[C@@H](CCCNC(=N)N)C(=O)N[C@@H](CCCCN)C(=O)N[C@@H](CC(C)C)C(=O)N1CCC[C@H]1C(N)=O [JM #174] (H-[dI]LRWSRKLP-NH2) |  |  | remaining (relative) activity after 8 hours of plasma incubation ([2]; human plasma, 8 hours): 100%
10 | SC024: PEG-coupled peptide JM #21, average molecular mass 20 kDa (ILRWSRKLPCVS; also: coupled to PEG 20 kDa, site not given here) | comparable to the state of the art CXCR4-antagonist AMD3100 and JM #21 |  | remaining (relative) activity after 8 hours of plasma incubation ([2]; human, plasma, 8 h): 30%
11 | SC033: PEG-coupled peptide JM #21, average molecular mass 5 kDa (ILRWSRKLPCVS; also: PEG-coupled, average 5 kDa, attachment site not given here) | comparable to the state of the art CXCR4-antagonist AMD3100 and JM #21 |  | remaining (relative) activity after 8 hours of plasma incubation ([2]; human, plasma, 8 h): 72%
12 | SC001: DSPE-coupled derivative (via PEG), one peptide copy (ILRWSRKLPCVS; also: DSPE conjugate via PEG, one peptide copy, site not given here) | higher activity than cholesterol-coupled SC043 | higher activity than cholesterol-coupled SC043 | 
13 | CSCC[C@H](NC(=O)[C@H](N)CC(C)C)C(=O)N[C@@H](CCCNC(=N)N)C(=O)N[C@@H](Cc1c[nH]c2ccccc12)C(=O)N[C@@H](CO)C(=O)N[C@@H](CCCNC(=N)N)C(=O)N[C@@H](CCCCN)C(=O)N[C@@H](CCSC)C(=O)N1CCC[C@H]1C(=O)N[C@@H](CS)C(=O)N[C@H](C(=O)N[C@@H](CO)C(=O)O)C(C)C [JM #36] (H-[dL]MRWSRKMPCVS-OH; C-terminus assumed) |  |  | remaining (relative) activity after 2 hours of plasma incubation ([2]; human plasma): 85%; remaining (relative) activity after 8 hours of plasma incubation ([2]; human plasma, 8 hours): 81%
14 | SC042: PVA-coupled peptide JM #21, average molecular mass 20 kDa (ILRWSRKLPCVS; also: PVA-coupled, average 20 kDa) | comparable activity as JM #21 | comparable activity as JM #21 | 
15 | d-LMRWSRKK(Glu-Pal)-NH2 ([dL]MRWSRKK([Glu″-Palmitoyl])-NH2) [JM #195] | strongly increased anti-HIV-1 activity |  | 
16 | CC[C@H](C)[C@H](N)C(=O)N[C@@H](CC(C)C)C(=O)N[C@@H](CCCNC(=N)N)C(=O)N[C@@H](Cc1c[nH]c2ccccc12)C(=O)N[C@@H](CO)C(=O)N[C@@H](CCCNC(=N)N)C(=O)N[C@@H](CCCCN)C(=O)N[C@@H](CCSC)C(=O)N1CCC[C@H]1C(=O)N[C@@H](CS)C(=O)N[C@H](C(=O)N[C@@H](CO)C(=O)O)C(C)C [JM #13] (H-ILRWSRKMPCVS-OH; C-terminus assumed) |  |  | IC50 [1]: < 5 nM
17 | CC(C)C[C@H](NC(=O)[C@@H](NC(=O)[C@@H]1CCCN1C(=O)[C@@H](NC(=O)[C@H](CO)NC(=O)[C@@H](NC(=O)[C@H](CCC(N)=O)NC(=O)[C@@H]1CCCN1C(=O)[C@@H](NC(=O)[C@H](CCCCN)NC(=O)[C@H](CCCCN)NC(=O)[C@@H](NC(=O)[C@H](Cc1ccc(O)cc1)NC(=O)[C@H](CCCNC(=N)N)NC(=O)[C@@H](NC(=O)[C@@H](N)CC(C)C)C(C)C)[C@@H](C)O)C(C)C)C(C)C)[C@@H](C)O)[C@@H](C)O)C(=O)O [EPI-X4] (H-LVRYTKKVPQVSTPTL-OH; N-terminus and C-terminus assumed) |  |  | reduction of CXCL12-induced AKT signaling [3]: about 40%; half-life at 20 μM ([2]; human, plasma): 17 min
